Assay results reported in patent publication US4070484A, “Antiallergic composition containing aromatic carboxylic amide derivatives and method of using the same” (Kissei Pharmaceutical Co., Ltd., priority 1973, dated 1978).
Entries after “also recorded” stand apart in the source; their conditions may differ. Where two headings read alike, the source gives them in different places.

Assays:
[1] = test system: antiallergic action, oral administration to mammalia; settings: known art; cited from earlier work
mast cells = settings: known art, cited from earlier work
[2] = test system: sensitized mesenteric mast cells; assay: Effect on the Disruption of the Sensitized Mast Cells; format: cell-based, rat; settings: 10^-5 g/ml, 5 minutes prior to the treatment of antigen
Method: Mesenteric mast cells isolated from normal rats were sensitized passively by means of incubation with rat reaginic antibody at 37° C. After termination of the incubation, the specific antigen (DNP-Ascaris) was added to the incubation medium, then these mast cells in mesentery were fixed with formalin and stained with 0.1 % toluidine blue (in acetic acid buffer; pH: 4.6). The number of mast cells disrupted as a consequence of the antigen-antibody reaction were counted under a microscope. The number of the mast cells disrupted were also counted without the addition of the specific antigen.
A given test compound dissolved in 1 % NaHCO3 solution was added to the incubation medium at a concentration of 10^-5 g/ml, 5 minutes prior to the treatment of antigen, while only the vehicle was added to the control group.
The efficacy of the test compounds to inhibit the mast cell disruption was compared with the value (%) calculated using the following formula: [formula] wherein P stands for the percentage of disrupted mast cells in the control group, Q for the percentage of mast cells disrupted spontaneously and R for the percentage of disrupted mast cells in the group treated with a given test compound.

dd-stain mice = assay: Acute Toxicity (LD50) in mice; format: in vivo; settings: oral, mortality on the 8th day, 11520 min
Method: (§1) The median lethal dose (LD50) of the new aromatic carboxylic acid amide derivatives of this invention were determined in dd-stain male and female mice (6 weeks old) by oral administration and in Wistar strain male and female rats (7 weeks old) by oral and intraperitoneal administration. Each animal selected for the experiment was maintained in an air conditioned room at a temperature of 22° ± 1° C and a relative humidity of 55 ± 5% during the full course of the experiment. All animals were fed compressed pellets (CE-2 type produced by Japan CLEA Co.) and water was available ad libitum by bottle. Five groups of ten animals for each administration route were used.
(§2) Since these compounds were isoluble in water, they were suspended in a 0.5% aqueous solution of carboxymethylcellulose at each dosage level. The administrative volume of each agent to 10 g body weight mouse was 0.2 ml for oral administration, while that to 100g body weight of rat was 0.5 ml for intraperitoneal and oral administrations.
(§3) The LD50 values were calculated from the mortality on the 8th day by the Litchfield-Wilcoxon's method.

[3] = Acute Toxicity (LD50) in mice; format: in vivo; settings: mouse, in vivo, po, mortality on the 8th day
Method: as §1, §2, §3

Wistar strain rats = assay: Acute Toxicity (LD50) in rats; format: in vivo; settings: mortality on the 8th day, 11520 min
Method: as §1, §2, §3

[4] = Acute Toxicity (LD50) in rats; format: in vivo; settings: rat, in vivo, mortality on the 8th day
Method: as §1, §2, §3

[5] = test system: experimental asthma in rats; assay: Experimental Asthma in Rats; format: in vivo, rat; settings: for minimal effective dose: Rattus norvegicus, oral, 2 hours before antigen injection
Method: Twenty normal male rats weighing 120-150 g were divided into four groups each consisting of five rats. All of the rats were sensitized passively by means of intravenous injection of rat reaginic antibody. After a lapse of 22 hours of sensitization, 5 milliliters of a 1% aqueous solution of NaHCO3 containing (3',4'-dimethoxycinnamoylamino)-benzoic acid* in a dose of 0 mg/kg (control), 5 mg/kg, 10 mg/kg and 20 mg/kg were orally administered to the rats in each group, and then canulation was begun on both the trachea and the common carotid artery on the rats. The rate and volume of respiration and systemic blood pressure were recorded simultaneously on a polygraph.
After 2 hours of administration, the challenge symptoms were subjected, by means of injection of the antigen, and the results are shown in the drawing attached herewith.

[6] = test system: adult patients having asthma bronchiale; assay: Clinical trial for adults; format: in vivo, human; settings: oral
Source text: A clinical trial was made by administering 2-(3',[…]-dimethoxycinnamoylamino)-benzoic acid orally to adult patients having asthma bronchiale. These patients having asthma bronchiale were chosen from those suffering from atopic and mixed forms. Determination of the effect were integrally judged from the extent of subjective symptoms (the number of asthma attacks, the degree of dyspnea, wheeze, the number of cough attacks and sputum expectoration), objective findings (dry rale) and pulmonary function test.
(§4) The effect was evaluated by five grades of "remarkable improvement", "moderate improvement", "slight improvement", "unchanged", and "aggravated". A daily dose (400-600 mg) of the active compound in the powdery preparation obtained in Example 12 was administered orally to patients in equal portions four times daily, ie, after every meal and before sleeping.

[7] = test system: homologous passive cutaneous anaphylaxis (antigen-antibody reaction); assay: Homologous Passive Cutaneous Anaphylaxis in Rats; format: in vivo, rat (Wistar male); settings: Rattus norvegicus, po; 200 mg/kg orally 2 hours prior to the injection of antigen
Method: Wistar male rats weighing 120-150 g were used in this experiment. […]. Normal rats were sensitized passively with dilution of the antibody by means of intradermal injection. After 48 hours of the sensitization, the mixture of antigen (EA) and evens blue was injected intravenously. The animals were killed by a blow on the head 30 minutes after the injection, and then the blue spot resulted from the antigen-antibody reaction was measured photometrically.
A given test compound dissolved in 1 % NaHCO3 solution was administrated in a dose of 200 mg/kg orally 2 hours prior to the injection of antigen, while only the vehicle solution was administered to the control group.
The efficacy of the test compounds to inhibit the homologous passive cutaneous anaphlaxis was compared with the value (%) calculated using the following formula: [formula] wherein A stands for the amount of leaked dye in control group and B for the amount of leaked dye in the group administered with a given test compound.

[8] = test system: child patients having asthma bronchiale; assay: Clinical trial for children; format: in vivo, human; settings: oral
Source text: A clinical trial was made by orally administering Compound No. 33 to child patients having asthma bronchiale. Child patients having asthma bronchiale in atopic and mixed forms were chosen for the clinical trial. Determination of the effect was integrally judged from the extent of subjective symptoms (the number of asthma attacks, the degree of dyspnea, wheeze, the number of cough attacks and sputum expectoration), objective findings (dry rale) and pulmonary function test.
as §4, with “"unchanged"and” for “"unchanged", and”, “(100-200” for “(400-600”, “a day, i.e.,” for “daily, ie,”

Q: Which results are given for `O=C(O)c1cc(=O)c2c(OCC(O)COc3cccc4oc(C(=O)O)cc(=O)c34)cccc2o1` [Disodium cromoglycate]?
A: pharmacological effect when administered orally (in words) [1]: loses its pharmacological effect when administered orally; inhibition of mast cell disruption (in words) (mast cells): inhibitor of mast cell disruption; inhibition of mast cell disruption (in words) (mast cells; listed as disodium cromoglycate): inhibits the disruption of mast cells and release therefrom of chemical mediators; Inhibition percentage (mast cell disruption) [2]: 16%

Q: With `COc1ccc(C=CC(=O)Nc2ccccc2C(=O)O)cc1OC` [Compound No. 33, N-(3',4'-dimethoxycinnamoyl)-anthranilic acid] as the molecule, how does the LD50 (dd-stain mice) read?
A: 500 mg/kg

Q: And the LD50 at 192 h [3]?
A: 705 mg/kg

Q: And the LD50 (Wistar strain rats; intraperitoneal)?
A: 338 mg/kg

Q: And the LD50 (Wistar strain rats; oral)?
A: 2030 mg/kg

Q: And the LD50 at 192 h ([4]; ip, intraperitoneal)?
A: 385 mg/kg

Q: And the LD50 at 192 h ([4]; po)?
A: 1850 mg/kg

Q: What about the minimal effective dose ([5]; read-out: dose showing inhibition of decrease in the rate of respiration) of the same molecule?
A: ≥ 5 mg/kg

Q: What about the minimal effective dose ([5]; read-out: dose showing inhibition of decrease in the volume of respiration) of the same molecule?
A: ≥ 10 mg/kg

Q: And the “Asthmatic symptoms resulting from the challenge” value ([5]; oral 5, 10, 20 mg/kg)?
A: observed in the control group only

Q: And the “effect on depression of blood pressure just after the challenge” value ([5]; oral 5, 10, 20 mg/kg, just after the challenge)?
A: no inhibiting effect

Q: What about the “effect on subsequent depression of blood pressure” value ([5]; oral 5, 10, 20 mg/kg, subsequent depression) of the same molecule?
A: showed an inhibiting effect on subsequent depression

Q: And the Evaluation ([6]; 400mg × 14 days)?
A: slight imp.

Q: What about the Side effect ([6]; 400mg × 14 days) of the same molecule?
A: none

Q: And the Evaluation ([6]; 400mg × 21 days)?
A: mod. impr.

Q: And the Side effect ([6]; 400mg × 21 days)?
A: none

Q: And the Side effect ([6]; 600mg × 14 days)?
A: none

Q: And the Evaluation ([6]; 600mg × 14 days, row)?
A: slight imp; also recorded: mod. impr

Q: What about the Evaluation ([6]; 600mg × 20 days) of the same molecule?
A: unchanged

Q: What about the Side effect ([6]; 600mg × 20 days) of the same molecule?
A: none

Q: And the Evaluation ([6]; 600mg × 21 days)?
A: unchanged

Q: What about the Side effect ([6]; 600mg × 21 days) of the same molecule?
A: none

Q: What about the Evaluation ([6]; 600mg × 24 days) of the same molecule?
A: mod. impr.

Q: What about the Side effect ([6]; 600mg × 24 days) of the same molecule?
A: none

Q: What about the inhibition at 200 mg/kg [7] of the same molecule?
A: 46.1%

Q: What about the Evaluation ([8]; 200 mg × 15 days) of the same molecule?
A: mod. impr.

Q: And the Side effect ([8]; 200 mg × 15 days)?
A: none

Q: What about the Evaluation ([8]; 200 mg × 29 days) of the same molecule?
A: slight impr.

Q: What about the Side effect ([8]; 200 mg × 29 days) of the same molecule?
A: none

Q: What about the Evaluation ([8]; 200 mg × 35 days) of the same molecule?
A: slight imp.

Q: What about the Side effect ([8]; 200 mg × 35 days) of the same molecule?
A: none

Q: What about the “Inhibition percentage (mast cell disruption)” value [2] of the same molecule?
A: 33%
